The text below walks through data of PMC8879803, “Identification of a Common Pharmacophore for Binding to MMP2 and RGD Integrin: Towards a Multitarget Approach to Inhibit Cancer Angiogenesis and Metastasis” (Molecules, 2022).

For experiment [1], the target named is T1, purified human integrin proteins αvβ3 (Homo sapiens, UniProt P05106+P06756).
T1 construct: purchased Sino Biological Europe GmbH, Eschborn, Germany
In words: Solid-phase integrin binding assay (competition with biotinylated vitronectin). As to conditions: read-out: Inhibition % of biotinylated vitronectin specific binding to αvβ3. The procedure:
As regarding to the binding affinity towards αvβ3, the library was screened using an in vitro solid-phase assays were performed at 10, 1.0 and 0.1 μM concentration of the test compounds for their ability to compete with biotinylated vitronectin for binding to pure αvβ3 integrin isolated from human placenta, and % binding activity is reported in Table 2.
Purified αvβ3 receptors (Sino Biological Europe GmbH, Eschborn, Germany) were diluted to 0.5 μg/mL in coating buffer containing Tris-HCl (20 mmol/L; pH 7.4), NaCl (150 mmol/L), MnCl2 (1 mmol/L), CaCl2 (2 mmol/L) and MgCl2 (1 mmol/L). An aliquot of diluted receptors (100 μL per well) was added to 96-well microtiter plates (MW 96F Medisorp Straight Nunc, Thermo Fischer Scientific, Waltham, MA, USA) and incubated, overnight, at 4 °C. The plates were then incubated with blocking solution (coating buffer plus 5% bovine serum albumin) for an additional 2 h at room temperature to block nonspecific binding followed by 3 h incubation at room temperature with various concentrations of test compounds in the presence of vitronectine (1 μg/mL, Sigma Aldrich, Merck KGaA, Darmstadt, Germany) biotinylated by using EZ-Link Sulfo-NHS-Biotinylation kit (Thermo Fisher, Waltham, MA, USA). After washing, the plates were incubated for 1 h at room temperature with streptavidin–biotinylated peroxidase complex (GE Healthcare, Chicago, IL, USA), followed by 30 min incubation with substrate reagent solution (100 μL; R&D Systems) before stopping the reaction by addition of H2SO4 (2 N, 50 μL). Absorbance at 415 nm was read with a BMG Labtech Fluostar Optima microplate reader. All the experiments were performed in triplicates and data collected were analyzed using the GraphPad 5.0 Software Package.

The next experiment concerns the target MMP9 (Homo sapiens, UniProt P14780). In words: Fluorometric enzyme inhibition assay with fluorogenic substrate Mca-Lys-Pro-Leu-Gly-Leu-Dpa-Ala-Arg-NH2 (MMP9). As to conditions: enzyme 1 nM, mean of three assays. Type of experiment: biochemical. The procedure:
(§1) For all the compounds showing >50% inhibition activity the IC50 values were obtained by dose-response measurements using an inhibitor range of concentrations (0.01 nM–20 μM) and enzyme concentration equal to 1 nM.
(§2) The inhibition potency of hydroxamic acid derivatives against MMP2 and MMP9 was assayed through a fluorometric assay using the fluorogenic substrate Mca-Lys-Pro-Leu-Gly-Leu-Dpa-Ala-Arg-NH2 (Enzo life science). All the measurements were performed in 96-well plates with a Fluostar Optima microplate reader (BMG Labtech, Ortenberg, Germany). Excitation and emission wavelengths were 320 and 420 nm, respectively. All incubations were performed at 28 °C in 50 mM TrisHCl, 150 mM NaCl, 10 mM CaCl2, 0.05% Brij 35, 1% DMSO at pH 7.5. The inhibitors were pre-incubated with enzymes (1 nM) for 5 min at room temperature before the reaction was started by the addition of the fluorogenic substrate (3 µM). The […] of fluorescence was monitored over 30 min (λex = 320 nm, λem = 420 nm) at 28 °C. The percentages of inhibition for the test compounds were determined through the equation (1 − Vs/Vo) × 100, where vs. is the initial velocity in the presence of the inhibitor and V0 is the initial velocity of the uninhibited reaction. The IC50 values were obtained by dose-response measurements using inhibitor range of concentrations 0.00001–20 μM and enzyme concentration equal to 1 nM. A detergent-based assay was used to determine the presence of promiscuous inhibitors. All the experiments were performed in triplicates and data collected were analyzed using Graphpad 5.0 Software Package (GraphPad Prism Inc., San Diego, CA, USA).

The target of a further experiment is T2, MMP2 (Homo sapiens, UniProt P08253).
T2 sequence (P08253 110-660): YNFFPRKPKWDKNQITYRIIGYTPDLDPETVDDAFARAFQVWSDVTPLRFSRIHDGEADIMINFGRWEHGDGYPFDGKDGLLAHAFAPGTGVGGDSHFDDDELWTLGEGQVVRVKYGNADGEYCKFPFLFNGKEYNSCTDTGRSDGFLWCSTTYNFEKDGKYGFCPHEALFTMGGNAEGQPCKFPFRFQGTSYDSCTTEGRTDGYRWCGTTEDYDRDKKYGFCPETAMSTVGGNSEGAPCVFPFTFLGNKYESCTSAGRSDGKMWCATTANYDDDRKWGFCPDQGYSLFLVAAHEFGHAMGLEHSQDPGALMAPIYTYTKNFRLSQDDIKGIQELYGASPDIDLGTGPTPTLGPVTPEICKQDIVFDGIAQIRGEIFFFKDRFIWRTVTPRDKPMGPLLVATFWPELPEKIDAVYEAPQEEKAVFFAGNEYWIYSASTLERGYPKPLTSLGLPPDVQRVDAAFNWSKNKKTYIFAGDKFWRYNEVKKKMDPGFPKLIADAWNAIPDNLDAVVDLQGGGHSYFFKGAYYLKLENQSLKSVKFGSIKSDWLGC
The experiment can be described thus: Fluorometric enzyme inhibition assay with fluorogenic substrate Mca-Lys-Pro-Leu-Gly-Leu-Dpa-Ala-Arg-NH2 (MMP2). Type of experiment: biochemical. The procedure: as §1, §2

Another experiment concerns M21 human melanoma cells. In words: Inhibition of integrin-mediated M21 cell adhesion to vitronectin. To be noted: Homo sapiens, M21, 2 mM MnCl2, relative to vehicle (PBS). Type of experiment: cell-based. As to the method:
All the compounds but 17 were also tested for their integrin binding affinity towards M21 human melanoma cells that expresses high levels of αvβ3 heterodimer and using cilengitide as a control. Tests were performed in the presence of 2 mM MnCl2 to switch integrins of tumour cells into an activated form, and at final concentration of the compounds ranging from 30 μM to 0.3 μM (Table 3). […] We were pleased to find that compound 19 maintained a good inhibition potency at 0.3 μM as the lowest concentration used, thus confirming the capacity of this compound to inhibit the binding of M21 melanoma cells to vitronectin as an RGD-containing substrate.
The expression levels of αVβ3 integrin receptors on M21 melanoma cell lines were reported previously. Next, 96 wells plates were coated overnight, at 4 °C, with vitronectin (5 μg/mL in PBS) (V8379 Sigma). Plates were, then washed with phosphate buffered saline (PBS) solution and incubated at 37 °C for 1 h with PBS containing 1% bovine serum albumin (BSA). M21 cells were centrifugated (RT, at 700× g) in PBS, to remove serum. Cells were counted and suspended in serum-free medium at 5.0 × 10^5 cells/mL. Melanoma cell suspensions were pre-incubated with different amounts of the compounds. The final concentration ranged from 30 uM to 0.3 uM, using cilengitide as a control. The incubation was performed at 37 °C for 30 min to allow the ligand-receptor equilibrium to be reached. Next, cells were plated on VN substrata (5–6 × 10^4 cells/well) and incubated at 37 °C for 1 h. The assays were conducted in the presence of 2 mmol/L MnCl2 [26]. At the end of the incubation, plates were washed with PBS to remove the non-adherent cells, and 200 μL of 0.5% crystal violet solution in 20% methanol were added. After 2 h of static incubation at 4 °C, plates were examined at 540 nm in a counter ELX800 (Bio TEK Instruments, Winooski, VT, USA). Experiments were done in triplicate and repeated at least three times. The values are expressed as % inhibition of cell adhesion relative to cells exposed to vehicle alone (PBS).

Regarding `NCCCOc1ccc(C[C@H](NS(=O)(=O)c2ccc(-c3ccccc3)cc2)C(=O)O)cc1` [Compound 16, (S)-2-([1,1′-Biphenyl]-4-ylsulfonamido)-3-(4-(3-aminopropoxy)phenyl)propanoic Acid], the inhibition at 0.1 µM in experiment [1] (at 0.1 μM) was 26%. In experiment [1] (at 1 μM), the inhibition at 1 µM came to 26%. Further, the inhibition at 10 µM stood at 19% in experiment [1] (at 10 μM); 0% against MMP9 (10 μM compound); 60% against MMP2 (10 μM compound, enzyme 1 nM, mean of three assays). The inhibition at 50 µM at MMP9 (50 μM compound) turned out to be 0%; against MMP2 (50 μM compound, enzyme 1 nM, mean of three assays), 79%. The “IC50 towards MMP2, in words” value against MMP2 is “micromolar range”. Further, on MMP2 (dose-response, enzyme 1 nM), the IC50 came out at 1200 nM. Besides, testing at 0.3 µM with M21 human melanoma cells (at 0.3 μM) gave an inhibition of 28%. This compound also registered an inhibition at 3 µM in the experiment with M21 human melanoma cells (at 3 μM) of 28.9%. In addition, in the experiment on M21 human melanoma cells (at 30 μM), testing at 30 µM gave an inhibition of 68.5%.
